Assay: Clinical trials of oral azimilide: incidence of torsades de pointes (TdP)
Format: in vivo, patients
Experimental: Clinical trials are conducted where 5375 patients receive oral doses of azimilide. Patients are administered azimilide using a 3-day, twice daily loading regimen of 150-250 mg/day followed by a daily maintenance regimen (75-125 mg/day) of ½ of the loading dose, or are given daily azimilide (75, 100 or 125 mg/day) without a loading regimen. Overall about 75% of the patients are men and about 25% are women. Two cases of TdP are found in placebo-assigned patients and 54 azimilide-associated cases of TdP. Lack of aspirin use or lack of statin use is more frequent in azimilide patients with TdP. A total of 1191 (22%) patients (243 [16%] females and 948 [25%] males) are taking statins and aspirin as concomitant medication. Among the 54 patients (30 females and 24 males) who experienced TdP, 35% are on aspirin, 20% are on statins and only 11% are taking both a statin and aspirin as concomitant medication.

## CN1CCN(CCCCN2C(=O)CN(/N=C/c3ccc(-c4ccc(Cl)cc4)o3)C2=O)CC1 [azimilide]
5375 patients receiving oral azimilide 75-125 mg/day, with or without 3-day loading regimen of 150-250 mg/day
  azimilide-associated cases of TdP: 54 cases
Among the 54 patients (30 females, 24 males) who experienced TdP, concomitant aspirin
  share of patients who experienced TdP that are on aspirin: 35%
Among the 54 patients who experienced TdP, concomitant statins
  share of patients who experienced TdP that are on statins: 20%
Among the 54 patients who experienced TdP, overall 1191 (22%) of patients take statins and aspirin
  share of patients who experienced TdP that are taking both a statin and aspirin: 11%
